Assay results: ChEMBL document CHEMBL5034014, “Melanocortin 1 Receptor Agonists Based on a Bivalent, Bicyclic Peptide Framework” (J Med Chem, 2021)

How the values were obtained:
[1] = target: T1, Melanocyte-stimulating hormone receptor (Homo sapiens, UniProt Q01726); assay: Agonist activity at human melanocortin receptor 1 expressed in human T-Rex-293 cells assessed as stimulation of intracellular cAMP accumulation incubated for 45 mins by LANCE cAMP assay; format: functional, cell-based
Melanocortin receptor 3 [2] = target: T2, Melanocortin receptor 3 (Homo sapiens, UniProt P41968); assay: Agonist activity at human melanocortin receptor 3 expressed in human T-REx-293 cells assessed as stimulation of intracellular cAMP accumulation incubated for 45 mins by LANCE cAMP assay; format: functional, cell-based
T2 sequence (P41968 whole entry): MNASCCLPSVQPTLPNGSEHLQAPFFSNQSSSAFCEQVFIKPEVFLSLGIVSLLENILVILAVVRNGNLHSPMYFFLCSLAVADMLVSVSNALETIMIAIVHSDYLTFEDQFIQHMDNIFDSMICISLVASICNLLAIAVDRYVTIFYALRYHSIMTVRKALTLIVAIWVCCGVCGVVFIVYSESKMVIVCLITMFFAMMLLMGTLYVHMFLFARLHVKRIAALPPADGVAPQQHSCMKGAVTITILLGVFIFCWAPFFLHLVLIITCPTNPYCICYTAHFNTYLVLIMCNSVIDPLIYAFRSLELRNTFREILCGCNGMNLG

Melanocortin receptor 4 [3] = target: T3, Melanocortin receptor 4 (Homo sapiens, UniProt P32245); assay: Agonist activity at human melanocortin receptor 4 expressed in human T-REx-293 cells using low doxycycline assessed as stimulation of intracellular cAMP accumulation incubated for 45 mins by LANCE cAMP assay; format: functional, cell-based
T3 sequence (P32245 whole entry): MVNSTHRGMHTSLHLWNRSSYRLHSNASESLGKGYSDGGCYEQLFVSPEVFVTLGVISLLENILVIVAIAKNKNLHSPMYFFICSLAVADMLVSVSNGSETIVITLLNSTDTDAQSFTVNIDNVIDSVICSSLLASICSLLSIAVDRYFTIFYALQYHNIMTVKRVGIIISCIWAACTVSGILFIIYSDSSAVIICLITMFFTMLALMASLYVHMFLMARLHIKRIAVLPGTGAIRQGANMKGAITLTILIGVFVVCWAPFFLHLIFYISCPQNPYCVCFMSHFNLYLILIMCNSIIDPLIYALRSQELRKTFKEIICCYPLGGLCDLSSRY

[4] = target: T1, Melanocyte-stimulating hormone receptor; assay: Displacement of [125I]-NDP-alpha-MSH from human MC1R expressed in HEK2936E cell membrane measured after 16-23 hrs by 1450 microbeta trilux scintillation proximity assay; format: cell membranes
Melanocortin receptor 3 [5] = target: T2, Melanocortin receptor 3; assay: Displacement of [125I]-NDP-alpha-MSH from human MC3R expressed in HEK2936E cell membrane measured after 16-23 hrs by 1450 microbeta trilux scintillation proximity assay; format: cell membranes
Melanocortin receptor 4 [6] = target: T3, Melanocortin receptor 4; assay: Displacement of [125I]-NDP-alpha-MSH from human MC4R expressed in HEK2936E cell membrane measured after 16-23 hrs by 1450 microbeta trilux scintillation proximity assay; format: cell membranes
Melanocortin receptor 5 = Melanocortin receptor 5 (Homo sapiens, UniProt P33032); assay: Displacement of [125I]-NDP-alpha-MSH from human MC5R expressed in HEK2936E cell membrane measured after 16-23 hrs by 1450 microbeta trilux scintillation proximity assay; format: cell membranes
Melanocortin receptor 5, sequence (P33032 whole entry): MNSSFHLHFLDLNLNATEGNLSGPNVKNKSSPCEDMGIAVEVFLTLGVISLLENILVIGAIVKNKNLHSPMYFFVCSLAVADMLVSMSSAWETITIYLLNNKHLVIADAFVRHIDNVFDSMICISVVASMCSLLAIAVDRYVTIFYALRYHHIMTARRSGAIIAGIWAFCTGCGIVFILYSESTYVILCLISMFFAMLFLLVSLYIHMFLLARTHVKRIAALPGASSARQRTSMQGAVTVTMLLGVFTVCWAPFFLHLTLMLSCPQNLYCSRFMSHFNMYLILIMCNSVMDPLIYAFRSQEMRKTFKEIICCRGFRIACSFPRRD

Homo sapiens [7] = organism: Homo sapiens; assay: Selectivity index, […] for displacement of [125I]-NDP-alpha-MSH from human MC1R […] for displacement of [125I]-NDP-alpha-MSH from human MC3R by competitive radioligand binding assay
Homo sapiens [8] = organism: Homo sapiens; assay: Selectivity index, […] for displacement of [125I]-NDP-alpha-MSH from human MC1R […] for displacement of [125I]-NDP-alpha-MSH from human MC4R by competitive radioligand binding assay
Homo sapiens [9] = organism: Homo sapiens; assay: Selectivity index, […] for displacement of [125I]-NDP-alpha-MSH from human MC1R […] for displacement of [125I]-NDP-alpha-MSH from human MC5R by competitive radioligand binding assay
Melanocortin receptor 4 [10] = target: T3, Melanocortin receptor 4; assay: Agonist activity at human melanocortin receptor 4 expressed in human T-REx-293 cells using high doxycycline assessed as stimulation of intracellular cAMP accumulation incubated for 45 mins by LANCE cAMP assay; format: functional

T1 sequence (Q01726 whole entry): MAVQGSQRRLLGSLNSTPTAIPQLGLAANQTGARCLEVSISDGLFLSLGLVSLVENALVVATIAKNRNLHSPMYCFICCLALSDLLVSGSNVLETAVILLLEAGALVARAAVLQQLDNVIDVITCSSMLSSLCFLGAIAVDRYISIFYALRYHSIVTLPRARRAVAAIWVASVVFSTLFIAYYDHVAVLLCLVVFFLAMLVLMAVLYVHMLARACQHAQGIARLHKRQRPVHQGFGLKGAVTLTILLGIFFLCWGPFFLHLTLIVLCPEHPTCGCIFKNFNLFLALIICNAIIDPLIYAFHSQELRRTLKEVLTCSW

Structure (SMILES) | EC50 [1] [nM] | EC50 (Melanocortin receptor 3 [2]) [nM] | EC50 (Melanocortin receptor 4 [3]) [nM] | Ki [4] [nM] | Ki (Melanocortin receptor 3 [5]) [nM] | Ki (Melanocortin receptor 4 [6]) [nM] | IC50 (Melanocortin receptor 5) [nM] | Ratio (Homo sapiens [7]) | Ratio (Homo sapiens [8]) | Ratio (Homo sapiens [9]) | EC50 (Melanocortin receptor 4 [10]) [nM]
CC[C@H](C)[C@@H]1NC(=O)[C@@H]2CCCN2C(=O)[C@H](Cc2c[nH]c3ccccc23)NC(=O)[C@H](CCCNC(=N)N)N(C)C(=O)[C@@H](Cc2ccc3ccccc3c2)NC(=O)[C@@H]2CCCN2C(=O)[C@H](Cc2c[nH]c3ccccc23)NC(=O)[C@@H]2CSSC[C@H](NC1=O)C(=O)N[C@@H](Cc1c[nH]cn1)C(=O)N[C@H](Cc1ccccc1)C(=O)N[C@@H](CCCNC(=N)N)C(=O)N[C@@H](Cc1c[nH]c3ccccc13)C(=O)N[C@@H](C)C(=O)N2 | 1.55 | 13.5 | 31.6 | 9.77 | 407 | 7.94 | 204 | – | – | – | 1.05
CC[C@H](C)[C@@H]1NC(=O)[C@@H]2CCCN2C(=O)[C@H](Cc2c[nH]c3ccccc23)NC(=O)[C@H](CCCNC(=N)N)N(C)C(=O)[C@@H](Cc2ccccc2)NC(=O)[C@H](Cc2c[nH]cn2)NC(=O)[C@H]([C@@H](C)O)NC(=O)[C@@H]2CSSC[C@H](NC1=O)C(=O)N[C@@H](Cc1c[nH]cn1)C(=O)N[C@H](Cc1ccccc1)C(=O)N[C@@H](CCCNC(=N)N)C(=O)N[C@@H](Cc1ccc3ccccc3c1)C(=O)N[C@@H](C)C(=O)N2 | > 0.0501 | 2.19 | 2.69 | 0.724 | 50.1 | 8.13 | 89.1 | – | – | – | 0.275
CC[C@H](C)[C@@H]1NC(=O)[C@@H]2CCCN2C(=O)[C@H](Cc2c[nH]c3ccccc23)NC(=O)[C@H](CCCNC(=N)N)N(C)C(=O)[C@@H](Cc2ccccc2)NC(=O)[C@H](Cc2c[nH]cn2)NC(=O)[C@H](CC(=O)O)NC(=O)[C@@H]2CSSC[C@H](NC1=O)C(=O)N[C@@H](Cc1c[nH]cn1)C(=O)N[C@H](Cc1ccccc1)C(=O)N(C)[C@@H](CCCNC(=N)N)C(=O)N(C)[C@@H](Cc1c[nH]c3ccccc13)C(=O)N[C@@H](Cc1ccc(O)cc1)C(=O)N2 | 0.0646 | 18.2 | 85.1 | 0.708 | 891 | 355 | 1230 | – | – | – | 4.27
C[C@@H]1NC(=O)[C@H](Cc2c[nH]c3ccccc23)NC(=O)[C@H](CCCNC(=N)N)NC(=O)[C@@H](Cc2ccccc2)NC(=O)[C@H](Cc2c[nH]cn2)NC(=O)[C@@H]2CSSC[C@H](NC1=O)C(=O)N[C@@H]([C@@H](C)O)C(=O)N[C@@H](Cc1c[nH]cn1)C(=O)N[C@H](Cc1ccccc1)C(=O)N(C)[C@@H](CCCNC(=N)N)C(=O)N[C@@H](Cc1c[nH]c3ccccc13)C(=O)N1CCC[C@H]1C(=O)N[C@@H](Cc1ccccc1)C(=O)N2 | 0.692 | 6.61 | 6.76 | 3.98 | 302 | 36.3 | 513 | – | – | – | 0.537
CN1C(=O)[C@@H](Cc2ccccc2)NC(=O)[C@H](Cc2c[nH]cn2)NC(=O)CNC(=O)[C@@H]2CSSC[C@H](NC(=O)[C@H](CCCNC(=N)N)NC(=O)[C@@H](CC(=O)O)NC(=O)[C@H](Cc3c[nH]c4ccccc34)NC(=O)[C@@H]1CCCNC(=N)N)C(=O)N[C@@H](Cc1c[nH]cn1)C(=O)N[C@H](Cc1ccccc1)C(=O)N(C)[C@@H](CCCNC(=N)N)C(=O)N(C)[C@@H](Cc1c[nH]c3ccccc13)C(=O)N[C@@H](CCCNC(=N)N)C(=O)N2 | 0.813 | 24 | 490 | 4.9 | 148 | 158 | 1510 | – | – | – | 10.5
CC[C@H](C)[C@@H]1NC(=O)[C@@H]2CCCN2C(=O)[C@H](Cc2c[nH]c3ccccc23)NC(=O)[C@H](CCCNC(=N)N)N(C)C(=O)[C@@H](Cc2ccccc2)NC(=O)[C@H](Cc2c[nH]cn2)NC(=O)[C@H](CC(=O)O)NC(=O)[C@@H]2CSSC[C@H](NC1=O)C(=O)N[C@@H](Cc1c[nH]cn1)C(=O)N[C@H](Cc1ccccc1)C(=O)N(C)[C@@H](CCCNC(=N)N)C(=O)N(C)[C@@H](Cc1c[nH]c3ccccc13)C(=O)N[C@@H](CCCNC(=N)N)C(=O)N2 | 0.11 | 11.2 | 22.9 | 0.794 | 479 | 138 | 2000 | – | – | – | 1.29
CC[C@H](C)[C@@H]1NC(=O)[C@@H]2CCCN2C(=O)[C@H](Cc2c[nH]c3ccccc23)NC(=O)[C@H](CCCNC(=N)N)N(C)C(=O)[C@@H](Cc2ccccc2)NC(=O)[C@H](Cc2c[nH]cn2)NC(=O)[C@H]([C@@H](C)O)NC(=O)[C@@H](NC(C)=O)CSSC[C@@H](C(N)=O)NC1=O | 8.71 | 39.8 | 60.3 | 195 | 3980 | 347 | 11200 | – | – | – | 2.57

Other lines, results leading:

EC50 [1] [nM] | EC50 (Melanocortin receptor 3 [2]) [nM] | EC50 (Melanocortin receptor 4 [3]) [nM] | Ki [4] [nM] | Ki (Melanocortin receptor 3 [5]) [nM] | Ki (Melanocortin receptor 4 [6]) [nM] | IC50 (Melanocortin receptor 5) [nM] | Ratio (Homo sapiens [7]) | Ratio (Homo sapiens [8]) | Ratio (Homo sapiens [9]) | EC50 (Melanocortin receptor 4 [10]) [nM] | Structure (SMILES)
< 0.0501 | 1.23 | 26.3 | 0.0692 | 51.3 | 30.2 | 166 | 30 | 30 | 3000 | 0.977 | CC[C@H](C)[C@@H]1NC(=O)[C@@H]2CCCN2C(=O)[C@H](Cc2c[nH]c3ccccc23)NC(=O)[C@H](CCCNC(=N)N)N(C)C(=O)[C@@H](Cc2ccccc2)NC(=O)[C@H](Cc2c[nH]cn2)NC(=O)[C@H]([C@@H](C)O)NC(=O)[C@@H]2CSSC[C@H](NC1=O)C(=O)N[C@@H](Cc1c[nH]cn1)C(=O)N[C@H](Cc1ccccc1)C(=O)N(C)[C@@H](CCCNC(=N)N)C(=O)N(C)[C@@H](Cc1c[nH]c3ccccc13)C(=O)N[C@@H](CCCNC(=N)N)C(=O)N2
0.0832 | 3.55 | 45.7 | 0.148 | 105 | 64.6 | 380 | – | – | – | 2.75 | CC[C@H](C)[C@@H]1NC(=O)[C@@H]2CCCN2C(=O)[C@H](Cc2c[nH]c3ccccc23)NC(=O)[C@H](CCCNC(=N)N)N(C)C(=O)[C@@H](Cc2ccccc2)NC(=O)[C@H](Cc2c[nH]cn2)NC(=O)[C@H](CCC(=O)O)NC(=O)[C@@H]2CSSC[C@H](NC1=O)C(=O)N[C@@H](Cc1c[nH]cn1)C(=O)N[C@H](Cc1ccccc1)C(=O)N(C)[C@@H](CCCNC(=N)N)C(=O)N(C)[C@@H](Cc1c[nH]c3ccccc13)C(=O)N[C@@H](CCCNC(=N)N)C(=O)N2
0.141 | 72.4 | 398 | 1.29 | 1740 | 589 | 3090 | – | – | – | 22.9 | CC[C@H](C)[C@@H]1NC(=O)[C@@H]2CCCN2C(=O)[C@H](Cc2c[nH]c3ccccc23)NC(=O)[C@H](CCC(=O)O)NC(=O)[C@@H](Cc2ccccc2)NC(=O)[C@H](Cc2c[nH]cn2)NC(=O)[C@H]([C@@H](C)O)NC(=O)[C@@H]2CSSC[C@H](NC1=O)C(=O)N[C@@H](Cc1c[nH]cn1)C(=O)N[C@H](Cc1ccccc1)C(=O)N(C)[C@@H](CCCNC(=N)N)C(=O)N(C)[C@@H](Cc1c[nH]c3ccccc13)C(=O)N[C@@H](CCCNC(=N)N)C(=O)N2
2.24 | 56.2 | 44.7 | 15.1 | 1150 | 91.2 | 589 | – | – | – | 2.19 | CC[C@H](C)[C@@H]1NC(=O)[C@@H]2CCCN2C(=O)[C@H](Cc2c[nH]c3ccccc23)NC(=O)[C@H](CCCNC(=N)N)N(C)C(=O)[C@@H](Cc2ccccc2)NC(=O)[C@H](Cc2c[nH]cn2)NC(=O)[C@H]([C@@H](C)O)NC(=O)[C@@H]2CSSC[C@H](NC1=O)C(=O)N[C@@H](Cc1c[nH]cn1)C(=O)N[C@H](Cc1ccccc1)C(=O)N[C@@H](C)C(=O)N[C@@H](Cc1c[nH]c3ccccc13)C(=O)N[C@@H](CCCNC(=N)N)C(=O)N2
